Results from patent publication US12508275B2, “Neomycin based compounds, and pharmaceutical use thereof” (UNIVERSITÉ COTE D'AZUR, priority 2019, dated 2025).

Columns and labels:
GB5 cells [1] = assay: TMZ assay: GSC sensitivity to Temozolomide (XTT); format: cell-based, human; conditions: three days; for increase of TMZ sensitivity: GB5, TMZ 400 uM plus compound at 10 uM; for increase of TMZ sensitivity, maximal effect: GB5, TMZ 400 uM plus compound at 50 uM
Experimental: FIG. 5: Sensitivity to TMZ was assessed by comparing the percentage of dead cells between TMZ treated GB5 and TMZ treated GB5 in combination with Compound 9a. GB5 cells have been treated with 400 uM TMZ alone or in combination with growing concentrations of Compounds 9a-b and 18b. The results are the meaning of at least two separate experiments.
IV—TMZ assay: TG6 and GB5 were seeded at 2000 cells/well in 96 wells plate in NS34+ or treated with medium containing 400 uM of TMZ alone or mixed with 10, 25 and 50 uM of Compounds 9a-b and 18a-b. Cultures were incubated 4 days and the cell viability has been evaluated by XTT assays and a count of living and dead cells with trypan blue staining.
Temozolomide is the chemotherapy of reference for GBM treatment. In order to assess whether the compounds might sensitize GSC to TMZ, TMZ (400 uM) pretreated GB5 cells were incubated with 10, 25 and 50 uM of Compounds 9a-b and 18b. Three days later the experiment is stop and the cells were subjected to an XTT assays. […] Cell toxicity was confirmed by trypan blue staining.

GB5 cells [2] = assay: Clonal expansion (clonal proliferation) of GB5; format: cell-based, human; conditions: GB5, spheroids counted after two and three weeks
Experimental: (§1) FIG. 2: Compounds 9a-b and 18a-b effect on stemness marker expression, clonal expansion and mitosis in GB5 cells. (A) NESTIN expression was assessed by immunofluorescence in GB5 treated with increasing amount of Compounds 9a-b and 18a. The number of NESTIN positive cells was counted for each treatment and express as percentage of the control (100%). The results are the meaning of at least two separate experiments. […] (C) Clonal expansion analysis was performed with GB5 cells as described in the material and method section. Two and three weeks later, the number of spheroids is counted and reported as percentage of the initial number of cells in the well. The results are the meaning of a minimum of two separate experiments. (D) The number of mitosis in the culture was determined by the detection of the number of cells positive for histone H3 phosphorylated on ser-10 (H3-ser10). H3-ser10 expression was assessed by immunofluorescence in GB5 treated with increasing amount of Compounds 9a-b and 18a. The number of positive cells was counted for each treatment and express as percentage of the control (100%). The results are the meaning of at least two separate experiments.
Clonal proliferation: TG6 and GB5 were seeded at 10 cells/well in 96 wells plate in NS34+ medium alone or containing growing concentration of Compounds 9a-b and 18a-b. Immediately after seeding, the real number of cells in the well was determined by direct count. Two and three weeks later, the resulting number of spheroids in each well was evaluated by a direct count. The % of clonal efficiency was calculated in dividing […].
(§2) It was further investigated the effects of selected compounds on GSC clonal expansion as well as their capacity of mitosis (FIGS. 2B and C). Compounds 9a-b and 18a treatment altered GSC clonal expansion and mitosis. The most efficient inhibition of clonal expansion was provided by Compound 9a treatment (IC50<10 uM) while both Compounds 9a-b were the most efficient for mitosis inhibition (IC50<10 uM) (FIGS. 2C and D).

GB5 = assay: XTT toxicity assay on GSC (GB5); format: cell-based
Experimental: FIG. 4: Determination of compound toxicity on GSC and normal human cells. (A) GB5 were incubated with growing concentration of Compounds 9a-b and 18a. (B) human normal neural stem cell (NNSC), human normal kidney cells (NHEK), human normal hepatocytes (HEPRG) and (C) human endothelial cells (HUVEC) were treated with growing concentration of Compound 9a. 7 days later, the cells were subjected to an XTT assays as described in the method section. The results are the meaning of at least two separate experiments. Cell death was confirmed by trypan blue staining (not shown).
II—XTT assay: TG6 and GB5 were seeded at 2000 cells/well in 96 wells plate in NS34+ alone or containing 10, 20, 25, 50 and 100 uM of Compounds 9a-b and 18a-b. Cultures were incubated 4 days and the cell proliferation was evaluated as indicated by the manufacturer.
V—Toxicity tests: NNSC, GB5, TG6, HEK293, and HepaRG, HUVEC were seeded at 2000 cells/well in 96 wells plate in their respective culture mediums alone or containing growing concentration from 10 to 500 uM of Compounds 9a-b. Cultures were incubated 4 days and the cellular toxicity has been evaluated by XTT assays. Cell viability has been also assessed by counting living and dead cells with trypan blue staining.
XTT assays allows, through cell metabolism measurement, to determine a cytotoxic/cytostatic effects. Compounds 9a-b and 18a were tested for their eventual toxicity by XTT assays as described in the material and method section. At the working concentrations 10 to 25 uM, the compounds are not toxic for GSC (FIG. 4A). […] Compound 9a toxicity was further tested on normal neural stem cells (NNSC), human kidney (NHEK), human hepatocytes (HEPRG) and human endothelial cells (HUVEC). The compound is not toxic on NNSC, NHEK, HEPRG and HUVEC cells when used between 10 to 50 uM. At 100 uM and above, Compound 9a was toxic (FIG. 4).

[3] = system: Patient derived GSC (GB5); assay: Effect of compound treatment on GSC phenotype (adhesion, morphology), GB5; format: cell-based, human; conditions: three days
Text: FIG. 1: phase contrast images of GB5 morphology untreated (CTL DMSO) or treated with the indicated compound (“Cpd” denotes compound) at the indicated concentration. Control cells grow as non-adherent spheroids composed of numerous GSC. When differentiated the cells become adherent and spread on the culture dish.
B—Cell culture: Patient-derived cells GB5 were isolated from surgical resection of human primary GBM provided by the department of neurosurgery of the University Hospital of Nice. TG6 (patient-derived cell from primary GBM) and HNNSC25 (Human Normal Neural Stem Cells) have been provided by Dr Hervé Chneiweiss, University of Pierre and Marie Curie, Paris. The resulting primary cultures (GB5, TG6, HNNSC25) were grown in NS34+ medium containing EGF and bFGF (DMEM-F12 1/1 ratio, 10 mM glutamine, 10 mM Hepes, 0.025% Sodium bicarbonate, N2, G5, and B27).
Patient derived GSC (GB5) were treated with growing concentration of Compounds 9a-b and 18a-b (10 to 100 uM) during three days). […] Similar results have been obtained with TG6.

GB5 cells [4] = assay: Mitosis: cells positive for histone H3 phosphorylated on ser-10, GB5; format: cell-based, human; conditions: GB5, H3-ser10 positive cells
Experimental: as §1
(§3) III—Immunofluorescence assay: TG6 and GB5 were seeded at 2000 cells/well in 24 wells plate in NS34+ alone or containing 5, 7.5, 10, 12.5, 15, 20 and 25 uM of Compounds 9a-b and 18a-b. Cultures were incubated 4 days and the cells were fixed with 4% paraformaldehyde for 10 min at room temperature then washed with PBS. Cells were then incubated with ammonium chloride at 20 mM 5 min at room temperature and washed 5 times with PBS. Blocking and hybridization were realized in PBS containing 10% FCS and 0.1% Triton X100. Anti-Nestin and anti-H3Phospho serine 10 antibodies were incubated 2 hours at room temperature then washed with PBS. Fluorescence coupled secondary antibodies and Hoechst 33342 nuclei counterstaining reagent were hybridized one hour at room temperature. Cells were mounted with anti-fading agent then imaged, counted and quantified using fluorescent microscopy (TiE Nikon) and NiS software (Nikon).
as §2

NESTIN expression in GB5 = assay: NESTIN expression by immunofluorescence in GB5; format: cell-based, human; conditions: GB5, seven days, growing concentrations
Experimental: as §1, §3
Patient derived GSC (GB5) have been treated during seven days, with growing concentrations of compounds that have been capable of inducing changes of GSC morphology. To assess the consequence on stemness maintenance, we observed, by immunofluorescence, the expression of stemness and progenitor cells such as the NESTIN protein. […] The strongest effect has been obtained with Compounds 9a treatment (IC50=10 uM).

SMILES | increase of TMZ sensitivity (GB5 cells [1]) | increase of TMZ sensitivity, maximal effect (GB5 cells [1]) | GSC clonal expansion (GB5 cells [2]) | toxicity for GSC (XTT) (GB5; GB5, 50 uM and higher) | toxicity for GSC (XTT) (GB5; GB5, 10 to 25 uM) | adhesion and changes in GSC morphology ([3]; GB5, 10 uM) | GSC mitosis (GB5 cells [4]) | IC50 (GB5 cells [4]; Homo sapiens, read-out: mitosis inhibition IC50) | NESTIN expression (NESTIN expression in GB5) | adhesion and changes in GSC morphology ([3]; GB5, 25 uM)
NCC1OC(OC2C(Cn3cc(CCC(=O)NCCc4nc(-c5nc(C(=O)NCCCCN=C(N)N)cs5)cs4)nn3)OC(OC3C(O)C(N)CC(N)C3OC3OC(CN)C(O)C(O)C3N)C2O)C(N)C(O)C1O (stereo not drawn) [Compound 9b, N-(4-((Diaminomethylene)amino)butyl)-2′-(2-(3-(1-methyl-1H-1,2,3-triazol-4-yl)propanamido)ethyl)-[2,4′-bithiazole]-4-carboxamide-neomycin] | 1.8 fold | 2.8 fold | altered | relative toxicity | not toxic | induced adhesion and changes in GSC morphology | altered | < 10 µM | drop in NESTIN expression | –
NCCCNC(=O)c1csc(-c2csc(CCNC(=O)CCC(=O)NCC3OC(OC4C(O)C(N)CC(N)C4OC4OC(CN)C(O)C(O)C4N)C(O)C3OC3OC(CN)C(O)C(O)C3N)n2)n1 (stereo not drawn) [Compound 18b, 4-((2-(4-((3-aminopropyl)carbamoyl)-[2,4′-bithiazol]-2′-yl)ethyl)amino)-4-oxobutanoic-amido-neomycin] | 1.7 fold | 3 fold | – | – | – | – | – | – | – | induced adhesion and changes in GSC morphology
NCCCCNCCCNC(=O)c1csc(-c2csc(CCNC(=O)CCC(=O)NCC3OC(OC4C(O)C(N)CC(N)C4OC4OC(CN)C(O)C(O)C4N)C(O)C3OC3OC(CN)C(O)C(O)C3N)n2)n1 (stereo not drawn) [Compound 18a, 4-((2-(4-((3-((4-aminobutyl)amino)propyl)carbamoyl)-[2,4′-bithiazol]-2′-yl)ethyl)amino)-4-oxobutanoic-amido-neomycin] | – | – | altered | relative toxicity | not toxic | induced adhesion and changes in GSC morphology | altered | – | drop in NESTIN expression | –
